Test results: patent US20250213529A1, “5-METHOXY-N.N-[…][…] THE TREATMENT OF PSYCHOMOTOR RETARDATION” (GH RESEARCH IRELAND LIMITED, priority 2022, published 2025)

Key:
[1] = test system: Escherichia coli (WP2 uvrA pKM101); experiment: Bacterial mutation test, Escherichia coli; format: cell-based; details: up to 5000 pg/plate; absence and presence of rat liver S-9
Text: (§1) These conditions included treatments at concentrations up to […] (the maximum recommended concentration according to current regulatory guidelines), in the absence and in the presence of a rat liver metabolic activation system (S-9).

[2] = Pharmacokinetics of 5-MeO-DMT and bufotenine after inhalation; format: in vivo, human; details: after 3 hours, 6, 12, 18 mg
[3] = test system: patients with postpartum depression (PPD); experiment: Clinical trial in patients with postpartum depression; details: PPD patient (n=1); for Total MADRS improvement / Total MADRS score: baseline 29; for BPRS Tension improvement: baseline 6
Protocol: The single-arm, open-label clinical trial will involve 15 adult female patients with clinically diagnosed postpartum depression (PPD).
The second dose (12 mg) will only be administered if: • a. […] The 6 mg dose was safe and well-tolerated according to the investigator, • c. Any psychoactive effects (PsE) of the prior dose have subsided, and • d. Pre-dose vital parameters and forced expiratory volume in one second (FEV1) are in normal range, or if outside of the normal range, are not clinically significant according to the investigator. • 3. Similarly, a third dose (18 mg) will only be administered if: • a. […] The 12 mg dose was safe and well-tolerated according to the investigator, and • c. Any PsE of the prior dose have subsided, and • d. Pre-dose vital parameters and forced expiratory volume in one second (FEV1) are in normal range, or if outside of the normal range, are not clinically significant according to the investigator.
The patients will be assessed for a peak psychedelic experience (based on a patient-scored visual analogue scale, the PE scale), sedation, and other endpoints after dosing. Follow-up visits are planned for Day 1, and Day 7 after the dosing day.
The following criteria must be met by all patients considered for clinical trial participation: • 1. Is female and in the age range between 18 and 45 years (inclusive) at screening. • 2. Has a body mass index (BMI) in the range of 18.5 and 35 kg/m^2 (inclusive) at screening. • 3. Meets the trial criteria for PPD as assessed by a trial psychiatrist or registered psychologist: • a. Diagnosis of Major Depressive Disorder without psychotic features, confirmed by the Mini-International Neuropsychiatric Interview (MINI), with peri-partum onset that began no earlier than gestation and no later than the first 4 weeks postpartum. • b. Has a Montgomery-Åsberg Depression Rating Scale (MADRS) total score of equal to or greater than 28 at screening and pre-dose on Day 0. • 6. […] Patients must have a negative pregnancy test at screening and on the pre-test day (Day −1). • 5. Is willing to delay start of other antidepressant or anxiety medication until after the end of the trial at Day 7 and agrees to keep any psychotherapy unchanged during the trial.
A potential patient who meets any of the following key exclusion criteria will be excluded from participation in this trial: • 1. Has, based on history, psychiatric assessment, and evaluation of the MINI, a current or prior diagnosis of bipolar disorder, a manic or hypomanic episode, a psychotic disorder, Major Depressive Disorder (MDD) or other mood disorder with psychotic features, obsessive compulsive disorder, post-traumatic stress disorder (PTSD), autism spectrum disorder, borderline personality disorder, schizophrenia, delusional disorder, paranoid personality disorder, schizoaffective disorder, clinically significant intellectual disability, or any other psychiatric comorbidity that renders the patient unsuitable for the trial according to the investigator's judgment. • 2. Has one or more first or second degree relatives with a current or previously diagnosed bipolar disorder, psychotic disorder or other mood disorder (including MDD) with psychotic features. • 3. Is in the judgement of a trial psychiatrist or registered psychologist, at significant risk for suicide based on history, psychiatric assessment, and evaluation of suicidal ideation and suicidal behaviour based on the Columbia-Suicide Severity Rating Scale (C-SSRS). • 4. Has taken anti-depressive medication within 14 days or 5 half-lives (whichever is longer) prior to dosing (exception: within the last 5 weeks in the case of fluoxetine). • 5.

[4] = test system: Salmonella typhimurium (TA98, TA100, TA1535 and TA1537); experiment: Bacterial mutation test, Salmonella typhimurium; format: cell-based; details: up to 5000 µg/plate; absence and presence of rat liver S-9
Text: as §1

[5] = IDR 6 then 12 mg inhaled, Day 0 score 5
[6] = IDR 6 then 12 mg inhaled, Day 0 score 6
[7] = IDR 6 then 12 mg inhaled, Day 1
[8] = IDR 6 then 12 mg inhaled, Day 7, Day 0 score 5
[9] = IDR 6 then 12 mg inhaled, Day 7, Day 0 score 6
[10] = IDR 6 then 12 mg inhaled, Day 7
[11] = IDR 6 then 12 mg inhaled, Day 7 vs Day 0

COc1ccc2[nH]cc(CCN(C)C)c2c1 [5-MeO-DMT]
Induction of mutation [1]: did not induce mutation | Detectability in plasma [2]: no longer detectable | Tolerability of the inhalation procedure [3]: well tolerated with no inhalation-related adverse events | Reported adverse events (cramping left abdominal pain and headache) ([3]; Day 0): mild, short-lasting and resolved spontaneously | BIMF total score improvement, percent ([3]; Day 7, from 92 to 105): 14% | ECG, safety laboratory analyses, CADSS ([3]; ECG 3 hours, laboratory 7 days, CADSS 3 hours, 1 day, 7 days): unremarkable | MADRS remission (MADRS total score equal or less than 10) ([3]; IDR 6 then 12 mg inhaled): fulfilled | MADRS response (at least 50% improvement from baseline) ([3]; IDR 6 then 12 mg inhaled): fulfilled | Onset of clinical response after administration ([3]; IDR 6 then 12 mg inhaled): ≤ 2 h | Time to clinical remission after administration ([3]; IDR 6 then 12 mg inhaled): ≤ 2 h | Durability of clinical response ([3]; IDR 6 then 12 mg inhaled, given once): sustained over the 7-day follow-up period | Total MADRS improvement ([3]; IDR 6 then 12 mg inhaled, 2 hr): 24 | Total MADRS score ([3]; IDR 6 then 12 mg inhaled, 2 hr): 5 | BIMF item 19 (As time goes on, I am getting better at taking care of my baby) Δ (Day 7) ([3]; IDR 6 then 12 mg inhaled, Day 0 score 0): 1 | BIMF item 13 (I am taking good care of my physical needs) Δ (Day 7) ([3]; IDR 6 then 12 mg inhaled, Day 0 score 4): 1 | BIMF item 5 (I am able to relax and enjoy time with my baby) Δ (Day 7) [3, 5]: 1 | BIMF item 9 (I am getting enough encouragement from other people) Δ (Day 7) [3, 5]: 1 | BIMF item 10 (I trust my own feelings (instincts) when it comes to taking care of my baby) Δ (Day 7) [3, 5]: 1 | BIMF item 11 (I take a little time each week to do something for myself) Δ (Day 7) [3, 5]: 1 | BIMF item 17 (I am able to take care of my baby and my other responsibilities) Δ (Day 7) [3, 5]: 0 | BIMF item 3 (I am comfortable with the way I've chosen to feed my baby) Δ (Day 7) [3, 6]: 0 | BIMF item 6 (There are people in my life that I can trust to care for my baby when I need a break) Δ (Day 7) [3, 6]: 0 | BIMF item 8 (I am getting enough adult interaction) Δ (Day 7) [3, 6]: 0 | BIMF item 12 (I am taking good care of my baby's physical needs) Δ (Day 7) [3, 6]: 0 | BIMF item 14 (I make good decisions about my baby's health and well being) Δ (Day 7) [3, 6]: 0 | BIMF item 20 (I am satisfied with the job I am doing as a new mother) Δ (Day 7) [3, 6]: −1 | BIMF TOTAL Δ (Day 7) ([3]; IDR 6 then 12 mg inhaled, Day 0 score 92): 13 | BPRS Tension improvement [3, 7]: 5 | Total MADRS improvement [3, 7]: 29 | Total MADRS score [3, 7]: 0 | BIMF item 19 (As time goes on, I am getting better at taking care of my baby) score ([3]; IDR 6 then 12 mg inhaled, Day 7, Day 0 score 0): 1 | BIMF item 16 (I worry about how other people judge me (as a mother)) score ([3]; IDR 6 then 12 mg inhaled, Day 7, Day 0 score 3): 5 | BIMF item 13 (I am taking good care of my physical needs) score ([3]; IDR 6 then 12 mg inhaled, Day 7, Day 0 score 4): 5 | BIMF item 5 (I am able to relax and enjoy time with my baby) score [3, 8]: 6 | BIMF item 9 (I am getting enough encouragement from other people) score [3, 8]: 6 | BIMF item 10 (I trust my own feelings (instincts) when it comes to taking care of my baby) score [3, 8]: 6 | BIMF item 11 (I take a little time each week to do something for myself) score [3, 8]: 6 | BIMF item 17 (I am able to take care of my baby and my other responsibilities) score [3, 8]: 5 | BIMF functional domain Adjustment score ([3]; IDR 6 then 12 mg inhaled, Day 7, Day 0 score 5, maximum 12): 6 | BIMF item 3 (I am comfortable with the way I've chosen to feed my baby) score [3, 9]: 6 | BIMF item 6 (There are people in my life that I can trust to care for my baby when I need a break) score [3, 9]: 6 | BIMF item 8 (I am getting enough adult interaction) score [3, 9]: 6 | BIMF item 12 (I am taking good care of my baby's physical needs) score [3, 9]: 6 | BIMF item 14 (I make good decisions about my baby's health and well being) score [3, 9]: 6 | BIMF item 20 (I am satisfied with the job I am doing as a new mother) score [3, 9]: 5 | BIMF functional domain Self Care score ([3]; IDR 6 then 12 mg inhaled, Day 7, Day 0 score 9, maximum 18): 13 | BIMF functional domain Infant Care score ([3]; IDR 6 then 12 mg inhaled, Day 7, Day 0 score 12, maximum 12): 12 | BIMF functional domain Mother-Child Interaction score ([3]; IDR 6 then 12 mg inhaled, Day 7, Day 0 score 15, maximum 18): 17 | BIMF functional domain Social Support score ([3]; IDR 6 then 12 mg inhaled, Day 7, Day 0 score 17, maximum 18): 18 | BIMF functional domain Management score ([3]; IDR 6 then 12 mg inhaled, Day 7, Day 0 score 28, maximum 36): 33 | BIMF functional domain Psychological Well-being score ([3]; IDR 6 then 12 mg inhaled, Day 7, Day 0 score 44, maximum 60): 53 | Total MADRS improvement [3, 10]: 28 | Total MADRS score [3, 10]: 1 | BIMF functional domain Adjustment % Improvement [3, 11]: 20.00% | BIMF functional domain Infant Care % Improvement [3, 11]: 0.00% | BIMF functional domain Management % Improvement [3, 11]: 18% | BIMF functional domain Self Care % Improvement [3, 11]: 44% | BPRS Tension improvement ([3]; IDR 6 then 12 mg inhaled, Discharge): 5 | PES score (intensity of the psychedelic experience) ([3]; nominal dose of 6 mg inhaled): 17.3 | Changes in vital parameters ([3]; shortly after administration): temporary, clinically non-relevant increase in heart rate and blood pressure | PES score (intensity of the psychedelic experience) ([3]; subsequent dose of 12 mg inhaled): 85.7 | Induction of mutation [4]: did not induce mutation
